Results published in patent publication US20250221998A1, “DISCOVERY OF COVALENT EGFR INHIBITOR THROUGH CYSTEINE 775” (Dana-Farber Cancer Institute, Inc., priority 2022, published 2025).

Experiments:
[1] = biological target: EGFR mutant L858R Ba/F3 cells (Homo sapiens, UniProt P00533, L858R, cells depend on it); experiment: Ba/F3 cell proliferation (Cell Titer Glo), EGFR L858R; assay type: cell-based, murine; settings: 72 hours exposure, read-out: L858R BaF3 (μM), inhibitory activity against EGFR mutants
Description: (§1) The EGFR mutant L858R Ba/F3 cells have been previously described (Zhou, W., et al. Nature 462, 2009, 1070-1074). The EGFR C797S and C775S mutations were introduced via site directed mutagenesis using the Quick Change Site-Directed Mutagenesis kit into a vector containing EGFR L858R mutation (Stratagene; La Jolla, CA) according to the manufacturer's instructions. All constructs were confirmed by DNA sequencing. The constructs were then shuttled into the retroviral vector JP1540 by either using the Cre-recombination system (Agilent Technologies, Santa Clara, CA) or the In-fusion HD Cloning kit (Takara Bio USA, Inc.; Mountain view, CA). Ba/F3 cells were then infected with retrovirus per standard protocols, as described previously (Zhou, et al, Nature 2009). Stable clones were obtained by selection in puromycin (2 ug/ml). All BaF/3 mutant cells were maintained in RPMI 1640 (Cellgro; Mediatech Inc., Herndon, CA) supplemented with 10% FBS, 100 units/mL penicillin, 100 units/mL streptomycin.
(§2) Growth and inhibition of growth was assessed by the Cell Titer Glo assay (Promega, Madison, WI) and was performed according to the manufacturer's instructions. The Cell Titer Glo assay is a luminescence-based method used to determine the number of viable cells based on quantitation of the ATP present, which is directly proportional to the amount of metabolically active cells present. Ba/F3 cells of different EGFR genotypes were exposed to compounds for 72 hours and the number of cells used per experiment was determined empirically as has been previously established (Zhou, et al., Nature 2009). All experimental points were set up in triplicates in 384-well plates. […] The curves were fitted using a non-linear regression model with a sigmoidal dose response.
(§3) For inhibitory activity against EGFR mutants, the following designations are used: ≤0·25 μM=A, 0·25 μM˜0.5 μM=B, 0.5 μM˜2.5 μM=C, ≥2.5 μM=D.

[2] = biological target: EGFR L858R/C797S Ba/F3 cells (Homo sapiens, UniProt P00533, C797S/L858R, cells depend on it); experiment: Ba/F3 cell proliferation (Cell Titer Glo), EGFR L858R/C797S; assay type: cell-based, murine; settings: 72 hours exposure, read-out: L858R/C797S (μM), inhibitory activity against EGFR mutants
Description: as §1, §2, §3

Chain of EGFR L858R/C797S Ba/F3 cells (P00533 whole entry C797S/L858R): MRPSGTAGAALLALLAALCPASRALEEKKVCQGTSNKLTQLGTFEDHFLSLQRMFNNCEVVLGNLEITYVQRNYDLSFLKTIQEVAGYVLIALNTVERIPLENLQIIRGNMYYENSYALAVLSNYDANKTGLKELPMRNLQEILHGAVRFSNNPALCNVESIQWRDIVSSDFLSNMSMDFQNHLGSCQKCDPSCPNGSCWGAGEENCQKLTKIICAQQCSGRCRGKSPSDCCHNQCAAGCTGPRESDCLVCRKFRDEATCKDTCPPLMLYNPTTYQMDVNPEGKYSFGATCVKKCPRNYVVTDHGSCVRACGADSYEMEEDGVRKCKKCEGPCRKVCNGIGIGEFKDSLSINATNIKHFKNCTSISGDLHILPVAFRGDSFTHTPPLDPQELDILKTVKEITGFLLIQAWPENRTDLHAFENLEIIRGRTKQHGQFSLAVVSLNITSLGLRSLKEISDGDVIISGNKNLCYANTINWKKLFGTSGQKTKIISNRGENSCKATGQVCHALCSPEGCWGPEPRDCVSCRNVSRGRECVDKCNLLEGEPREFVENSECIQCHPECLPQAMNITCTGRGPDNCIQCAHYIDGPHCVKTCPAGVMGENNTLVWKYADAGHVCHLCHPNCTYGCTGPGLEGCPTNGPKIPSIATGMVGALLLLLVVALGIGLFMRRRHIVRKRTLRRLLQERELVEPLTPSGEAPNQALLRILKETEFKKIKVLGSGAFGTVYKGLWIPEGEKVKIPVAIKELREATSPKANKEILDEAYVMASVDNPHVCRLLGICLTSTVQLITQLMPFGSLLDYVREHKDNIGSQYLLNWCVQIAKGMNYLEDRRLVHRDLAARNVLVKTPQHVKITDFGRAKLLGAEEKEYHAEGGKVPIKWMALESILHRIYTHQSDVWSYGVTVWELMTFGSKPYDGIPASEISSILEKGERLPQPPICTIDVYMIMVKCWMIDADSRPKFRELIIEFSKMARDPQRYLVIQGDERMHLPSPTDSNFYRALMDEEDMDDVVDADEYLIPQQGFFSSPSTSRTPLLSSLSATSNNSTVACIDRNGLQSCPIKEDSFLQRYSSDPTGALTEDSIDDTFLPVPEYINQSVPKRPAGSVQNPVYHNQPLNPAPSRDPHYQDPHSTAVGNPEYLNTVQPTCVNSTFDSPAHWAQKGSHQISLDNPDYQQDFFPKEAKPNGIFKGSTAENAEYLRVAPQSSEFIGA
Chain of EGFR mutant L858R Ba/F3 cells (P00533 whole entry L858R, the tested form may be a part): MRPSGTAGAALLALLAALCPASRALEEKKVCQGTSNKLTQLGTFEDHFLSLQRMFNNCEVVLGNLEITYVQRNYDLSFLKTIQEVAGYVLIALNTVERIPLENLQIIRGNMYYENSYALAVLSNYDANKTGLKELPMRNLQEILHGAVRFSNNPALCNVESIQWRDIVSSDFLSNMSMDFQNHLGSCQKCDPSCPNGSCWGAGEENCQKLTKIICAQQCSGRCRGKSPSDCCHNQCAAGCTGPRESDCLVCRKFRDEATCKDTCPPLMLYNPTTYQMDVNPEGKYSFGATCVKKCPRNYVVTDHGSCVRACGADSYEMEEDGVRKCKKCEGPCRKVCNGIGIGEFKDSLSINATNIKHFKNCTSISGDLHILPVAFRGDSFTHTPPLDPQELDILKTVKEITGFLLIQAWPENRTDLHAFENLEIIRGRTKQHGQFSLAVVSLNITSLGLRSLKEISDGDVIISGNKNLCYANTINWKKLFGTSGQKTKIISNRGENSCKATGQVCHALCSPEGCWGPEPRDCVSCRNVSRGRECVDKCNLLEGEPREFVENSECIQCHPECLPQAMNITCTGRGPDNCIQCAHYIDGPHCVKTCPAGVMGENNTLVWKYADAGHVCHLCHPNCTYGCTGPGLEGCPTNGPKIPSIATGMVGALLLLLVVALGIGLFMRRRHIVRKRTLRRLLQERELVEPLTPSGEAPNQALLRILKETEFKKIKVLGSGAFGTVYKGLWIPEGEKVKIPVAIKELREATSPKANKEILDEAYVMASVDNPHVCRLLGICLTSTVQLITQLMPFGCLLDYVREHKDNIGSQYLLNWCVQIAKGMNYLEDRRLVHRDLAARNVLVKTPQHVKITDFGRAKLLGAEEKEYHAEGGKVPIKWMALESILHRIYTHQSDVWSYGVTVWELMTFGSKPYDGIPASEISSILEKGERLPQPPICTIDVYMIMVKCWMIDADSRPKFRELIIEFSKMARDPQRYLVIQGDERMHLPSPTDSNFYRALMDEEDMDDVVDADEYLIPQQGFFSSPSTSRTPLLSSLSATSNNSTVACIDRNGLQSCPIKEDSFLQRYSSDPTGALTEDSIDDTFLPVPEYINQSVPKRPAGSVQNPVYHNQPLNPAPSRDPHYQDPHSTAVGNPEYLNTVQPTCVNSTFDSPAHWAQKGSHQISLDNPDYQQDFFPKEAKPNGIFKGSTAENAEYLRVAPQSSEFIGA

GI50 [1] [µM] | GI50 [2] [µM] | Compound
≤ 0.25 | ≤ 0.25 | C=CC(=O)N1CCN(c2cc3cnc(Nc4ccc(N5CCN(C)CC5)c(F)c4)nc3n(C)c2=O)c2cccc(C)c21 [Compound 040]
≤ 0.25 | 0.25 to 0.5 | C=CC(=O)N1CCN(c2cc3cnc(Nc4cnn(CCS(C)(=O)=O)c4)nc3n(C)c2=O)c2cccc(C)c21 [Compound 041]
≤ 0.25 | ≤ 0.25 | C=CC(=O)N1CCN(c2cc3cnc(Nc4ccc(OCCN(C)C)cc4)nc3n(C3CC(O)C3)c2=O)c2cccc(C)c21 (stereo not drawn) [Compound 042, 2-[4-[2-(dimethylamino)ethoxy]anilino]-8-(3-hydroxycyclobutyl)-6-(5-methyl-4-prop-2-enoyl-2,3-dihydroquinoxalin-1-yl)pyrido[2,3-d]pyrimidin-7-one]
≤ 0.25 | ≤ 0.25 | C=CC(=O)N1CCN(c2cc3cnc(Nc4ccc(OCCN(C)C)cc4)nc3n([C@H]3C[C@@H](O)C3)c2=O)c2cccc(C)c21 [Compound 043]
≤ 0.25 | ≤ 0.25 | C=CC(=O)N1CCN(c2cc3cnc(Nc4ccc(OCCN(C)C)cc4)nc3n([C@H]3C[C@H](O)C3)c2=O)c2cccc(C)c21 [Compound 044]
≤ 0.25 | ≤ 0.25 | C=CC(=O)N1CCN(c2cc3cnc(Nc4cccc(N5CCS(=O)(=O)CC5)c4)nc3n(C)c2=O)c2cccc(C)c21 [Compound 045]
≤ 0.25 | ≤ 0.25 | C=CC(=O)N1CCN(c2cc3cnc(Nc4ccc(N5CCN(C)CC5)cc4)nc3n(C3CC(O)C3)c2=O)c2cccc(C)c21 (stereo not drawn) [Compound 046, 8-(3-hydroxycyclobutyl)-2-[4-(4-methylpiperazin-1-yl)anilino]-6-(5-methyl-4-prop-2-enoyl-2,3-dihydroquinoxalin-1-yl)pyrido[2,3-d]pyrimidin-7-one]
≤ 0.25 | ≤ 0.25 | C=CC(=O)N1CCN(c2cc3cnc(Nc4ccc(OCCN(C)C)cc4)nc3n(CCO)c2=O)c2cccc(C)c21 [Compound 047, 2-[4-[2-(dimethylamino)ethoxy]anilino]-8-(2-hydroxyethyl)-6-(5-methyl-4-prop-2-enoyl-2,3-dihydroquinoxalin-1-yl)pyrido[2,3-d]pyrimidin-7-one]
≤ 0.25 | ≤ 0.25 | C=CC(=O)N1CCN(c2cc3cnc(Nc4ccc(CC5CN(S(C)(=O)=O)C5)cc4)nc3n(C)c2=O)c2cccc(C)c21 [Compound 048, 8-methyl-6-(5-methyl-4-prop-2-enoyl-2,3-dihydroquinoxalin-1-yl)-2-[4-[(1-methylsulfonylazetidin-3-yl)methyl]anilino]pyrido[2,3-d]pyrimidin-7-one]
≤ 0.25 | ≤ 0.25 | C=CC(=O)N1CCN(c2cc3cnc(Nc4ccc(OC5CN(S(C)(=O)=O)C5)cc4)nc3n(C)c2=O)c2cccc(C)c21 [Compound 049]
≤ 0.25 | ≤ 0.25 | C=CC(=O)N1CCN(c2cc3cnc(Nc4ccc(CN5CCN(C)CC5)cc4)nc3n(C)c2=O)c2cccc(C)c21 [Compound 050]
≤ 0.25 | ≤ 0.25 | C=CC(=O)N1CCN(c2cc3cnc(Nc4ccc(N5CCN(C)CC5)cc4)nc3n(C)c2=O)c2cccc(O)c21 [Compound 051, 6-(5-hydroxy-4-prop-2-enoyl-2,3-dihydroquinoxalin-1-yl)-8-methyl-2-[4-(4-methylpiperazin-1-yl)anilino]pyrido[2,3-d]pyrimidin-7-one]
≤ 0.25 | ≤ 0.25 | C=CC(=O)N1CCN(c2cc3cnc(Nc4ccc(N5CCN(C)CC5)cc4)nc3n(-c3cccnc3)c2=O)c2cccc(C)c21 [Compound 052, 2-[4-(4-methylpiperazin-1-yl)anilino]-6-(5-methyl-4-prop-2-enoyl-2,3-dihydroquinoxalin-1-yl)-8-(3-pyridyl)pyrido[2,3-d]pyrimidin-7-one]
≤ 0.25 | 0.25 to 0.5 | C=CC(=O)N1CCN(c2cc3cnc(Nc4ccc(CS(=O)(=O)NC)cc4)nc3n(C)c2=O)c2cccc(O)c21 [Compound 053]
≤ 0.25 | ≤ 0.25 | C=CC(=O)N1CCN(c2c(F)c3cnc(Nc4ccc(N5CCN(C)CC5)cc4)nc3n(C)c2=O)c2cccc(C)c21 [Compound 054, 5-fluoro-8-methyl-2-[4-(4-methylpiperazin-1-yl)anilino]-6-(5-methyl-4-prop-2-enoyl-2,3-dihydroquinoxalin-1-yl)pyrido[2,3-d]pyrimidin-7-one]
≤ 0.25 | ≤ 0.25 | C=CC(=O)N1CCN(c2cc3cnc(Nc4ccc(OCCN(C)C)cc4)nc3n(C3CC(F)(F)C3)c2=O)c2cccc(C)c21 [Compound 055, 8-(3,3-difluorocyclobutyl)-2-[4-[2-(dimethylamino)ethoxy]anilino]-6-(5-methyl-4-prop-2-enoyl-2,3-dihydroquinoxalin-1-yl)pyrido[2,3-d]pyrimidin-7-one]
≤ 0.25 | ≤ 0.25 | C=CC(=O)N1CCN(c2cc3cnc(Nc4ccc(OCCN(C)C)cc4)nc3n([C@H]3C[C@@](C)(O)C3)c2=O)c2cccc(C)c21 [Compound 056, 2-[4-[2-(dimethylamino)ethoxy]anilino]-8-((1s,3s)-3-hydroxy-3-methyl-cyclobutyl)-6-(5-methyl-4-prop-2-enoyl-2,3-dihydroquinoxalin-1-yl)pyrido[2,3-d]pyrimidin-7-one]
≤ 0.25 | ≤ 0.25 | C=CC(=O)N1CCN(c2cc3cnc(Nc4ccc(OCCN(C)C)cc4)nc3n([C@H]3C[C@](C)(O)C3)c2=O)c2cccc(C)c21 [Compound 057, 2-[4-[2-(dimethylamino)ethoxy]anilino]-8-((1r,3r)-3-hydroxy-3-methyl-cyclobutyl)-6-(5-methyl-4-prop-2-enoyl-2,3-dihydroquinoxalin-1-yl)pyrido[2,3-d]pyrimidin-7-one]
≤ 0.25 | ≤ 0.25 | C=CC(=O)N1CCN(c2cc3cnc(Nc4ccc(OCCN(C)C)cc4)nc3n(CC(C)(C)O)c2=O)c2cccc(C)c21 [Compound 058, 2-[4-[2-(dimethylamino)ethoxy]anilino]-8-(2-hydroxy-2-methyl-propyl)-6-(5-methyl-4-prop-2-enoyl-2,3-dihydroquinoxalin-1-yl)pyrido[2,3-d]pyrimidin-7-one]
≤ 0.25 | ≤ 0.25 | C=CC(=O)N1CCN(c2c(F)c3cnc(Nc4ccc(N5CCN(C)CC5)cc4)nc3n(C)c2=O)c2c(F)cc(F)c(C)c21 [Compound 059, 6-(6,8-difluoro-5-methyl-4-prop-2-enoyl-2,3-dihydroquinoxalin-1-yl)-5-fluoro-8-methyl-2-[4-(4-methylpiperazin-1-yl)anilino]pyrido[2,3-d]pyrimidin-7-one]
0.25 to 0.5 | 0.5 to 2.5 | C=CC(=O)N1CCN(c2cc3cnc(Nc4ccc(OCCN(C)C)cc4)nc3n(C3COC3)c2=O)c2cccc(C)c21 [Compound 060, 2-[4-[2-(dimethylamino)ethoxy]anilino]-6-(5-methyl-4-prop-2-enoyl-2,3-dihydroquinoxalin-1-yl)-8-(oxetan-3-yl)pyrido[2,3-d]pyrimidin-7-one]
≤ 0.25 | ≤ 0.25 | C=CC(=O)N1CCN(c2cc3cnc(Nc4cc5c(cc4F)CCN(C)C5)nc3n(C)c2=O)c2cccc(C)c21 [Compound 061, 2-[(6-fluoro-2-methyl-3,4-dihydro-1H-isoquinolin-7-yl)amino]-8-methyl-6-(5-methyl-4-prop-2-enoyl-2,3-dihydroquinoxalin-1-yl)pyrido[2,3-d]pyrimidin-7-one]
≤ 0.25 | ≤ 0.25 | C=CC(=O)N1CCN(c2cc3cnc(Nc4ccnc(OC)c4)nc3n(C)c2=O)c2cccc(C)c21 [Compound 062]
0.25 to 0.5 | 0.5 to 2.5 | C=CC(=O)N1CCN(c2cc3cnc(Nc4cc(OC)ncc4C)nc3n(C)c2=O)c2cccc(C)c21 [Compound 063]
≤ 0.25 | 0.25 to 0.5 | C=CC(=O)Nc1c(O)cccc1Oc1cc2cnc(Nc3ccc(N4CCN(C)CC4)cc3)nc2n(C)c1=O [Compound 064, N-[2-hydroxy-6-[8-methyl-2-[4-(4-methylpiperazin-1-yl)anilino]-7-oxo-pyrido[2,3-d]pyrimidin-6-yl]oxy-phenyl]prop-2-enamide]
≤ 0.25 | ≤ 0.25 | C=CC(=O)N1CCN(c2cc3cnc(Nc4ccc(N5CCN(C)CC5)cc4)nc3n(C)c2=O)c2cccc(N)c21 [Compound 065, 6-(5-amino-4-prop-2-enoyl-2,3-dihydroquinoxalin-1-yl)-8-methyl-2-[4-(4-methylpiperazin-1-yl)anilino]pyrido[2,3-d]pyrimidin-7-one]
≤ 0.25 | ≤ 0.25 | C=CC(=O)N1CCN(c2cc3cnc(Nc4ccc(OCCN(C)C)cc4)nc3n(C)c2=O)c2cccc(O)c21 [Compound 066, 2-[4-[2-(dimethylamino)ethoxy]anilino]-6-(5-hydroxy-4-prop-2-enoyl-2,3-dihydroquinoxalin-1-yl)-8-methyl-pyrido[2,3-d]pyrimidin-7-one]
